Source: paper PMC10122656, “Siglec-6 mediates the uptake of extracellular vesicles through a noncanonical glycolipid binding pocket” (Nature Communications, 2023)
“And” between values parts separate entries of the source, which are not always exact repeats. Equal values may be shown once.

How the values were obtained:
Siglec-6-Fc WT = molecular target: T1, Siglec-6-Fc WT (Homo sapiens, UniProt O43699); experiment: Ganglioside ELISA; assay type: binding; conditions: for ganglioside ELISA signal, Siglec-6 WT: Figure 2c, replicates; for ELISA recognition of adsorbed ganglioside by Siglec-6 (in words): ganglioside adsorbed to microplate, outside a bilayer
T1 construct: the Siglecs as Fc chimeras; made in house; host or cells: WT CHO cells
T1 sequence (O43699 27-347 limits assumed): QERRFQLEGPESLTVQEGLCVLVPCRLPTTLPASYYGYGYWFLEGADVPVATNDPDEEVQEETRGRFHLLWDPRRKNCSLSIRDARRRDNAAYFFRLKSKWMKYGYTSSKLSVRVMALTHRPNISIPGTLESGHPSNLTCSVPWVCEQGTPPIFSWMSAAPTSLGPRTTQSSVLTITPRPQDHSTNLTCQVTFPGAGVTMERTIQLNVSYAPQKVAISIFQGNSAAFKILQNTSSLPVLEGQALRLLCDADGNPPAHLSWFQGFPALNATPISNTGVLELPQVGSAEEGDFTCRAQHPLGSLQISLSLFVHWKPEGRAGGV
Method: (§1) Siglec-Fc constructs designed by Rodrigues et al.[30] were used in this work. Siglec-Fc constructs were expressed using WT CHO cells in cell culture media as described above with 1% HEPES. Cells incubated as described above for one-week post confluency. The supernatant was harvested and stored at 4 °C.
(§2) The purification was heavily inspired by Rodrigues et al.[30]. The purification of the Siglec-Fcs from supernatant began with Ni^2+ affinity chromatography using an AKTA FPLC equipped with a HisTrap Excel column (GE). The column was equilibrated with fifteen column volumes (CVs) of equilibrium buffer (500 mM NaCl, 20 mM NaPO4H2, pH 7.4). The Siglec-Fc containing supernatant was then loaded in its entirety onto the column. The column was then washed with fifteen CVs of wash buffer (500 mM NaCl, 30 mM imidazole, 20 mM NaPO4H2, pH 7.4). The Siglec-Fc was then eluted in 20 in 1 mL fractions with twenty CVs of elution buffer (500 mM NaCl, 500 mM imidazole, 20 mM NaPO4H2, pH 7.4). Fractions containing Siglec-Fc were compiled and then prepared for the next stage of purification by diluting the fractions 1:4 with buffer W (100 mM Tris–HCl, 150 mM NaCl, 1 mM EDTA, pH 8.0). A Strep-Tactin column (IBA life sciences) was washed with fifteen CVs of buffer W. The Siglec-Fc-buffer W solution was then loaded in its entirety onto the column. The bound Siglec-Fc was then washed with fifteen CVs of buffer W. Siglec-Fc was eluted from the column with 15 column volumes of buffer E (100 mM Tris–HCl, 150 mM NaCl, 1 mM EDTA, 10 mM d-Desthiobiotin, pH 8.0). Fractions containing Siglec-Fc were pooled and dialyzed against PBS to remove any d-Desthiobiotin. After dialysis, Siglec-Fcs were concentrated using an ultra-centrifugal device (30 kDa MWCO) and aliquoted into 5 µg aliquots, and frozen. The Siglec-Fcs were then lyophilized overnight, and the lyophilized Siglec-Fcs were stored at −20 °C.
(§3) Our ELISA approach was carried out similarly to previous work by Rapoport[12] and Yamakawa[44]. Ganglioside ethanol solutions (10 µM) were prepared and then transferred in 50 µL increments to a 96-well microplate. The ethanol was removed by drying the plates overnight at room temperature. The plates were then washed with PBS, dried, and then blocked with 5% (m/V) BSA PBS for 1 h. The plates were then washed with PBS and then 2 µg/mL Siglec-Fc precomplexed to Strep-Tactin (2 Siglec-Fc:1 Strep-Tactin monomer) horse radish peroxidase was added to the microplate. The complex was incubated with the plate at room temperature for 2 h. The unbound complexes were then removed by washing in PBS and the plate was developed with Sera care TMB solution. The amount of binding was then quantified by using the background (microplate well with no ligand) subtracted absorbance at 450 nm using a Molecular Devices SpectraMAX ® iD5.

Siglec-8 R125A CHO cells = molecular target: T2, Siglec-8 R125A CHO cells (Homo sapiens, UniProt Q9NYZ4, R125A); experiment: Cell assay (liposome/EV binding, flow cytometry); assay type: cell-based; conditions: Sig-8 R125A; 3 mol% ganglioside liposomes; replicates
T2 construct: expressed in transfected cells
T2 sequence (Q9NYZ4 17-499 R125A): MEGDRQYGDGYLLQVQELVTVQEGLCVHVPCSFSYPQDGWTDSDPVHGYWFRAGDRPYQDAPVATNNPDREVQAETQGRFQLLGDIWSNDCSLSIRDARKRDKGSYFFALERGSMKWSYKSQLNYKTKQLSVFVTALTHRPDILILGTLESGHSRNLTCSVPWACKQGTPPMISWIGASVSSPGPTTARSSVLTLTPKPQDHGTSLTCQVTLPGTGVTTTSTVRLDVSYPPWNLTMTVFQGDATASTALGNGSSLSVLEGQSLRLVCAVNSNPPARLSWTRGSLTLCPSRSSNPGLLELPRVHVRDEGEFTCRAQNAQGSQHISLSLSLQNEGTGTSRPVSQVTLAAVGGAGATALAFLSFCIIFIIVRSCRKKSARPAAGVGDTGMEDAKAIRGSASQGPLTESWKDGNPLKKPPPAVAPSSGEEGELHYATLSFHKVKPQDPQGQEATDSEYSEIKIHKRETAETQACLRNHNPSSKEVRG
Method: (§4) Stock lipids (DSPC, Cholesterol, PEG45–DSPE) solutions were prepared by solvating the lipids in chloroform. An appropriate volume of each lipid solution was transferred to a glass test tube to reach the desired mol% of the component. The chloroform was then removed under N2 gas to yield a lipid thin film. Once dry, 100 µL of DMSO was added to the lipid-containing test tube and then the functional lipids (ganglioside, AF647–PEG45–DSPE, Siglec ligand–PEG45–DSPE, pHrodo–PEG45–DSPE, NGL) was added from their respect DMSO stock solution. The lipid mixture was then stored at −80 °C until completely frozen at which point excess DMSO was removed via lyophilization. Dry lipids were then stored at −80 °C until they were extruded. Lipid suppliers can be found in Supplementary Table 4.
(§5) Dry lipids were then hydrated in 1 mL of PBS. The lipids were then sonicated in a bath sonicator in a cycle of 1 min on, 5 min off for a total of five cycles. Liposomes were then extruded using an Avanti mini extruder first using an 800 nm filter and then a 100 nm filter yielding liposomes that were 130 ± 35 nm (Supplementary Table 5) measured using a Malvern Panalytical Zetasizer Nano S. Liposomes were stored at 4 °C.
(§6) 200,000 cells/well were plated into a 96-well U-bottom microplate and centrifuged at 300 × g for 5 min. The cells were then resuspended in 50 µL of 50 µM liposome/50 µg/mL (protein concentration) of EV solution in DMEM F12 5% FBS and incubated at 37 °C for 30 min. Excess liposomes were then removed via centrifuged at 300 × g for 5 min followed by washing the cells with FACS solution. The cells were then resuspended in (1:250 V/V) anti-Siglec-flow buffer (1% V/V FBS, 500 µM, EDTA Hank’s Balanced Salt Solution pH 7.4), solution and left to rest on ice for 30 min. The cells were then centrifuged again at 300 × g for 5 min and the cells were resuspended in FACS buffer solution and were then ready for analysis by flow cytometry. Information regarding antibody clone, catalog number supplier, label isotype, and dilution can be found in Supplementary Table 6. The Siglec-positive cells were gated on for liposome-binding analysis (Supplementary Fig. 1b).
(§7) Flow cytometry measurements were collected on a 5-laser Fortessa X-20 (BD Bioscience). All the resulting data were analyzed using FlowJo (10.5.3) software (BD Biosciences).

Siglec-8 WT CHO cells = molecular target: T3, Siglec-8 WT CHO cells (Homo sapiens, UniProt Q9NYZ4); experiment: Cell assay (liposome/EV binding, flow cytometry); assay type: cell-based; conditions: Sig-8 WT; 3 mol% ganglioside liposomes; replicates
T3 construct: expressed in transfected cells
T3 sequence (Q9NYZ4 17-499): as the sequence (Q9NYZ4 17-499 R125A) above, with A109R counted along it
Method: as §4, §5, §6, §7

WT Siglec-1 CHO cells = molecular target: T4, WT Siglec-1 CHO cells (Homo sapiens, UniProt Q9BZZ2); experiment: Cell assay (liposome/EV binding, flow cytometry); assay type: cell-based; set-up: GM1 liposome binding to Siglec-1 CHO cells, flow cytometry (Fig. 1b) / Binding of liposomes with increasing ganglioside content against Siglec-1 CHO cells (Fig. 1c) / Liposome binding to Siglec-1-expressing CHO cells in the cell assay (Fig. 1f): unit not given here; conditions: for log10(MFI AF647) of GLL relative to log10(MFI AF647) of the same GLL against UT CHO cells (Fig. 2a): Sig-1 WT, 3 mol% ganglioside liposomes; for log10(MFI AF647) of GLL relative to log10(MFI AF647) of the same GLL against UT CHO cells (Fig. 2a) / Binding of liposomes with increasing ganglioside content against Siglec-1 CHO cells (Fig. 1c) / Liposome binding to Siglec-1-expressing CHO cells in the cell assay (Fig. 1f): replicates; for GM1 liposome binding to Siglec-1 CHO cells, flow cytometry (Fig. 1b): 3 mol% GM1 liposomes, technical replicates
T4 construct: expressed in transfected cells
T4 sequence (Q9BZZ2 20-1709): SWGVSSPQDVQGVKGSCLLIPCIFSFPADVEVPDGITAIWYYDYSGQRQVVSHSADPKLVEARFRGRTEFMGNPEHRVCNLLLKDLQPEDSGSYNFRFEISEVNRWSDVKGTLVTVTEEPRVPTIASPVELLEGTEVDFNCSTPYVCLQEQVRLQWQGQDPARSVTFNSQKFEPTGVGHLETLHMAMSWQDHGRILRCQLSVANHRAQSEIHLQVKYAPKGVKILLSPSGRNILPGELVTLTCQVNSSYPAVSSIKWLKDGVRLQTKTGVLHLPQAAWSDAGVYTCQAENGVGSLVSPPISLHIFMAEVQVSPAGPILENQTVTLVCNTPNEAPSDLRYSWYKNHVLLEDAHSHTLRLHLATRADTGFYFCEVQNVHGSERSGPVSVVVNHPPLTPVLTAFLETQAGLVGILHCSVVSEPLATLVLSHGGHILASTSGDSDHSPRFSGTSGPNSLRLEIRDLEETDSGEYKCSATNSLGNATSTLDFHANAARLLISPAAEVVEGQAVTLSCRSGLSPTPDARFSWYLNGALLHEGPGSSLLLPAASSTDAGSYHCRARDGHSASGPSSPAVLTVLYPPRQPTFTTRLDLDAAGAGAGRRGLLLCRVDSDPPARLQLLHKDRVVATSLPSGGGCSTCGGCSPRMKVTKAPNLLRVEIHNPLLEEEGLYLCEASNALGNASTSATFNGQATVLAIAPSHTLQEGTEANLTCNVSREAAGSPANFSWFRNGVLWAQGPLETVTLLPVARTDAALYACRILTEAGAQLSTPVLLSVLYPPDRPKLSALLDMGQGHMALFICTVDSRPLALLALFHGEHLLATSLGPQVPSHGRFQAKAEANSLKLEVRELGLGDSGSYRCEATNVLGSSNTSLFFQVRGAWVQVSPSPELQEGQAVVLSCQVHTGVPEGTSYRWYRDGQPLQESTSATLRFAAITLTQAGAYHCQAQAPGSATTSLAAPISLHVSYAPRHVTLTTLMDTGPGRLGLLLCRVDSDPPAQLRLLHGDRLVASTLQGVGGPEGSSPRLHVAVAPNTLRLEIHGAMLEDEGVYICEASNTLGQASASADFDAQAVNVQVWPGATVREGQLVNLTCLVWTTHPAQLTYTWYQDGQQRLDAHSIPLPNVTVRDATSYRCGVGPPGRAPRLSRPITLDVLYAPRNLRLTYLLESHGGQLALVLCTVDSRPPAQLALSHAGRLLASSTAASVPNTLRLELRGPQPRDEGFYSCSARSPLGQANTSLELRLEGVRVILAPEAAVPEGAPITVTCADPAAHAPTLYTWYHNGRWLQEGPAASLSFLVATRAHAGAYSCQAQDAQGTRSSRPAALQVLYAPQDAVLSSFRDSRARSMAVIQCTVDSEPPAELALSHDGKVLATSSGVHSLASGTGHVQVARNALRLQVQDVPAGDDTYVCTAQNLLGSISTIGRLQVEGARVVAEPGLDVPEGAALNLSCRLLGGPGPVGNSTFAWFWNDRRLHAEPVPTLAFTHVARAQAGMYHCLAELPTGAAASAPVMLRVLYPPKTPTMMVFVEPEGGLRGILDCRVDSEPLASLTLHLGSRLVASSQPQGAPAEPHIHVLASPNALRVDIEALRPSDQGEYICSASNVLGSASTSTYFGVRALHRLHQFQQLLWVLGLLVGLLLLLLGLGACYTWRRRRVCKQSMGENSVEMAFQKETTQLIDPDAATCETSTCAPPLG
Method: as §4, §5, §6, §7

R122A Siglec-6-Fc = molecular target: T5, R122A Siglec-6-Fc (Homo sapiens, UniProt O43699, R122A); experiment: Ganglioside ELISA; assay type: binding; conditions: Figure 2c, replicates
T5 construct: the Siglecs as Fc chimeras; made in house; host or cells: WT CHO cells
T5 sequence (O43699 27-347 R122A limits assumed): as the sequence (O43699 27-347 limits assumed) above, with R96A counted along it
Method: as §1, §2, §3

Siglec-1-Fc WT = Siglec-1-Fc WT (Homo sapiens, UniProt Q9BZZ2); experiment: Ganglioside ELISA; assay type: binding; conditions: Figure 2c, replicates
Sequence of Siglec-1-Fc WT (Q9BZZ2 20-136 limits assumed): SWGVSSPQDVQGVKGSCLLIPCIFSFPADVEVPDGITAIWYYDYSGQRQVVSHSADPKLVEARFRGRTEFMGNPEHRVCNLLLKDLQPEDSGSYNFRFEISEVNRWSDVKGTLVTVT
Method: as §1, §2, §3

Siglec-7-Fc WT = molecular target: T6, Siglec-7-Fc WT (Homo sapiens, UniProt Q9Y286); experiment: Ganglioside ELISA; assay type: binding; conditions: Figure 2c, replicates
T6 construct: the Siglecs as Fc chimeras; made in house; host or cells: WT CHO cells
T6 sequence (Q9Y286 19-353 limits assumed): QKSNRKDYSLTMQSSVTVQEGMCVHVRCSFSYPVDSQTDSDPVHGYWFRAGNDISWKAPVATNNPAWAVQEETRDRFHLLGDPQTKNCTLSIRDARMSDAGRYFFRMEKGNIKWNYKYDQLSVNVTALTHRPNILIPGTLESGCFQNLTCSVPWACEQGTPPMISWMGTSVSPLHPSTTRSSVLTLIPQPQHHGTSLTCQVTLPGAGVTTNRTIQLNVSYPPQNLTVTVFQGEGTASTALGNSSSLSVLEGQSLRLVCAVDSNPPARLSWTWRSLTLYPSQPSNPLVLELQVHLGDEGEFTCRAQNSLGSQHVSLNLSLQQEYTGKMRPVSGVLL
Method: as §1, §2, §3

Siglec-7-Fc R124A = molecular target: T7, Siglec-7-Fc R124A (Homo sapiens, UniProt Q9Y286, R124A); experiment: Ganglioside ELISA; assay type: binding; conditions: Figure 2c, replicates
T7 construct: the Siglecs as Fc chimeras; made in house; host or cells: WT CHO cells
T7 sequence (Q9Y286 19-353 R124A limits assumed): as the sequence (Q9Y286 19-353 limits assumed) above, with R106A counted along it
Method: as §1, §2, §3

| Compound | log10(MFI AF647) of GLL relative to log10(MFI AF647) of the same GLL against UT CHO cells (Fig. 2a) (Siglec-8 R125A CHO cells) | log10(MFI AF647) of GLL relative to log10(MFI AF647) of the same GLL against UT CHO cells (Fig. 2a) (Siglec-8 WT CHO cells) | log10(MFI AF647) of GLL relative to log10(MFI AF647) of the same GLL against UT CHO cells (Fig. 2a) (WT Siglec-1 CHO cells) | ganglioside ELISA signal, Siglec-6 WT (Siglec-6-Fc WT) | ganglioside ELISA signal, Siglec-6 R (R122A Siglec-6-Fc) | ganglioside ELISA signal, Siglec-1 WT (Siglec-1-Fc WT) | ganglioside ELISA signal, Siglec-7 WT (Siglec-7-Fc WT) | ganglioside ELISA signal, Siglec-7 R (Siglec-7-Fc R124A) | Binding of liposomes with increasing ganglioside content against Siglec-1 CHO cells (Fig. 1c) (WT Siglec-1 CHO cells; 0.0187 Ligand/nm2) | Binding of liposomes with increasing ganglioside content against Siglec-1 CHO cells (Fig. 1c) (WT Siglec-1 CHO cells; 0.056 Ligand/nm2) | Binding of liposomes with increasing ganglioside content against Siglec-1 CHO cells (Fig. 1c) (WT Siglec-1 CHO cells; 0.0933 Ligand/nm2) | Binding of liposomes with increasing ganglioside content against Siglec-1 CHO cells (Fig. 1c) (WT Siglec-1 CHO cells; 0.187 Ligand/nm2) | Binding of liposomes with increasing ganglioside content against Siglec-1 CHO cells (Fig. 1c) (WT Siglec-1 CHO cells; 0.373 Ligand/nm2) | ELISA recognition of adsorbed ganglioside by Siglec-6 (in words) (Siglec-6-Fc WT) | also measured |
| --- | --- | --- | --- | --- | --- | --- | --- | --- | --- | --- | --- | --- | --- | --- | --- |
| CCCCCCCCCCCCCCCCOCC(COCCCCCCCCCCCCCCCC)OCc1cn(CCO[C@@H]2O[C@H](CO)[C@@H](O[C@@H]3O[C@H](CO)[C@H](O)[C@H](O[C@]4(C(=O)O)C[C@H](O)[C@@H](NC(C)=O)[C@H]([C@H](O)[C@H](O)CO)O4)[C@H]3O)[C@H](O)[C@H]2O)nn1 [nGL 5] |  |  |  |  |  |  |  |  |  |  |  |  |  |  | fold difference in binding to Siglec-6 between 5 and GM3 (Siglec-6-Fc WT; by ELISA): 1.5 fold |
| GD1b | -0.14 and -0.15 and -0.17 and -0.19 | -0.17 (2×) and -0.15 (2×) | 0.7 and 0.71 (2×) and 0.63 | -0.04 and 0.01 | 0.07 and 0.09 and 0.06 and 0.08 | 0.52 and 0.66 and 0.64 and 0.62 | 0.41 and 0.39 and 0.38 | 0 and -0.01 and -0.02 |  |  |  |  |  |  |  |
| GM1 | -0.02 and -0.06 and -0.08 and -0.03 | -0.02 (3×) and 0.04 | 0.34 and 0.29 and 0.27 and 0.31 | -0.03 and -0.04 and -0.05 and -0.02 | 0.02 and 0.03 | 0.39 and 0.55 and 0.5 and 0.54 | 0.04 and 0.05 and 0.01 and 0.03 | 0 and -0.01 and 0.03 | 0.02 | 0.26 and 0.28 and 0.27 (2×) | 0.26 and 0.25 and 0.27 and 0.28 | 0.19 and 0.18 (2×) and 0.16 | 0.08 (3×) and 0.07 | did not recognize | Binding of liposomes with increasing ganglioside content against Siglec-1 CHO cells (Fig. 1c) (WT Siglec-1 CHO cells; 0.0373 Ligand/nm2): 0.13 (2×) and 0.12 (2×); Liposome binding to Siglec-1-expressing CHO cells in the cell assay (Fig. 1f) (WT Siglec-1 CHO cells; 3% glycolipid in liposome): 926 and 882 and 896; GM1 liposome binding to Siglec-1 CHO cells, flow cytometry (Fig. 1b) (WT Siglec-1 CHO cells; 0.2 mol% PEG45–DSPE): 1640 and 1691 and 1719 and 1798; GM1 liposome binding to Siglec-1 CHO cells, flow cytometry (Fig. 1b) (WT Siglec-1 CHO cells; 0.5 mol% PEG45–DSPE): 1529 and 1675 and 1687 and 1576 and 1551; GM1 liposome binding to Siglec-1 CHO cells, flow cytometry (Fig. 1b) (WT Siglec-1 CHO cells; 1 mol% PEG45–DSPE): 687 and 675 and 684 and 712 and 741; GM1 liposome binding to Siglec-1 CHO cells, flow cytometry (Fig. 1b) (WT Siglec-1 CHO cells; 2 mol% PEG45–DSPE): 106 and 105 and 107 and 111 and 113; GM1 liposome binding to Siglec-1 CHO cells, flow cytometry (Fig. 1b) (WT Siglec-1 CHO cells; 5 mol% PEG45–DSPE): 79 and 80 and 82 and 81; Liposome binding to Siglec-1-expressing CHO cells in the cell assay (Fig. 1f) (WT Siglec-1 CHO cells; 20% glycolipid in liposome): 316 and 299 and 296; binding to WT Siglec-1 CHO cells (in words) (WT Siglec-1 CHO cells; cell assay): No differences in binding; ganglioside content threshold above which GLL binding to Siglec-1 CHO cells decreased (WT Siglec-1 CHO cells; ganglioside titrated in GLLs): 1–3 mol% |
| GD3 | -0.04 (2×) and -0.08 (2×) | -0.11 and -0.06 and -0.09 and -0.01 | 0.41 (3×) and 0.45 | 0.04 and 0.09 and 0.03 | 0.22 and 0.2 | 0.76 and 0.85 and 0.8 and 0.82 | 0.74 and 0.73 and 0.7 and 0.66 | 0.01 and -0.01 and -0.02 |  |  |  |  |  | did not recognize |  |
| GM3 | -0.18 and -0.17 and -0.2 (2×) | -0.22 and -0.18 and -0.2 and -0.17 | 0.19 and 0.16 and 0.23 and 0.17 | 0.27 and 0.3 and 0.26 | 0.34 and 0.37 and 0.41 and 0.4 | 0.99 and 1.04 and 1.15 and 1.05 | 0.61 and 0.6 and 0.68 and 0.7 | -0.02 and 0 | 0 | 0.02 | 0.04 | 0.13 (2×) and 0.12 and 0.14 and 0.16 (4×) | 0.33 and 0.36 and 0.26 | interacted weakly | trend of GLL binding to Siglec-1 CHO cells with ganglioside content (WT Siglec-1 CHO cells; ganglioside titrated in GLLs): progressive increase in GLL binding up to 20 mol% |
